Legend:
Rattus norvegicus [1] = species: Rattus norvegicus; assay: Value of Kd measured against rat Adipocytes; type: functional, organism-based
Rattus norvegicus [2] = species: Rattus norvegicus; assay: Maximal activity to stimulate lipogenisis in rat adipocytes compared to the maximal effect of insulin; type: functional

Row | Kd (Rattus norvegicus [1]) | Structure (SMILES) | Activity (Rattus norvegicus [2])
1 | 15.9 µM | NC1[C@H](O[C@H]2C(O)C(O)[C@@H](O)C3OP(=O)(O)O[C@H]32)OC(CO)[C@@H](O)[C@@H]1O (some centres undefined) | 24%
2 | 12 µM | Nc1c(S(=O)(=O)[O-])cc2c3c(cc(S(=O)(=O)[O-])cc13)C(=O)N(CCNC(=O)CSC[C@@H]1O[C@@H](O[C@H]3[C@H](O)[C@H](O)[C@@H](O)[C@@H]4OP(=O)(O)O[C@@H]34)[C@@H](N)[C@@H](O)[C@@H]1O)C2=O.[K+].[K+] | 47%

Reference: ChEMBL document CHEMBL1143525, “A fluorescent inositol phosphate glycan stimulates lipogenesis in rat adipocytes by extracellular activation alone” (Bioorg Med Chem Lett, 2005)
